In ChEMBL document CHEMBL1201862, “PubChem BioAssay data set” (2004):
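1) Cells in 96-well plates. 2) Compound, 48 h, 5 concentrations. 3) Linear interpolation between surrounding doses. 4) Unreached endpoint = highest concentration. The concentration for 50% growth inhibition is given as GI50.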 The source made the active and inactive calls. Rule as the data show it: active = GI50 up to about 1.1 µM and inactive = higher.

How the values were obtained:
Assay in all cases: growth of human tumour cells (NCI), 48 h
A549 = tested on: A549
CCRF-CEM = tested on: CCRF-CEM
DU-145 = tested on: DU-145
EKVX = tested on: EKVX
HCT-116 = tested on: HCT-116
HCT-15 = tested on: HCT-15
HOP-62 = tested on: HOP-62
IGROV-1 = tested on: IGROV-1
MCF7 = tested on: MCF7
MDA-MB-231 = tested on: MDA-MB-231
NCI-H522 = tested on: NCI-H522
OVCAR-3 = tested on: OVCAR-3
OVCAR-5 = tested on: OVCAR-5
OVCAR-8 = tested on: OVCAR-8
SF-268 = tested on: SF-268
SK-MEL-2 = tested on: SK-MEL-2
SN12C = tested on: SN12C
SR = tested on: SR
T47D = tested on: T47D
UACC-257 = tested on: UACC-257

SMILES	GI50 (A549)	GI50 (CCRF-CEM)	GI50 (DU-145)	GI50 (EKVX)	GI50 (HCT-116)	GI50 (HCT-15) [µM]	GI50 (HOP-62)	GI50 (IGROV-1)	GI50 (MCF7)	GI50 (MDA-MB-231)	GI50 (NCI-H522)	GI50 (OVCAR-3)	GI50 (OVCAR-5)	GI50 (OVCAR-8)	GI50 (SF-268)	GI50 (SK-MEL-2)	GI50 (SN12C)	GI50 (SR)	GI50 (T47D)	GI50 (UACC-257)
COC1/C=C/C(C)C(C(C)C(OC)C(C)CCC(=O)C(C)C(CCC(=O)O)OC)OC(=O)/C=C/C=C(\C)CC(OC)CC2=CC(=O)O[C@@H](C(C)C(OC)CC(OC)/C=C/C(C)C(OC)C1)[C@H]2O (stereo not given in full)	0.332 µM (active)	0.181 µM (active)	1.71 µM (inactive)	2.22 µM (inactive)	0.385 µM (active)	0.74	0.631 µM (active)	0.177 µM (active)	1.04 µM (active)	0.483 µM (active)	1.37 µM (inactive)	0.646 µM (active)	> 5 µM (inactive)	2.21 µM (inactive)	0.284 µM (active)	0.271 µM (active)	0.733 µM (active)	0.637 µM (active)	2.56 µM (inactive)	1.24 µM (inactive)
C[C@]12CC[C@H](O)CC1=CC[C@@H]1[C@@H]2CC[C@]2(C)NC(=O)/C(=C\c3ccccc3)C[C@@H]12	14.6 µM (inactive)	17 µM (inactive)	16.4 µM (inactive)	14 µM (inactive)	14.2 µM (inactive)	17.4	13.5 µM (inactive)	15.9 µM (inactive)	14.4 µM (inactive)	16 µM (inactive)	10.5 µM (inactive)	11.9 µM (inactive)	14.5 µM (inactive)	21.1 µM (inactive)	15.5 µM (inactive)	12.6 µM (inactive)	23 µM (inactive)	28.7 µM (inactive)	12.3 µM (inactive)	23.3 µM (inactive)
c1ccc(-c2c3c(nc4c2CC[C@H]4NC2=NCCN2)[C@@H](NC2=NCCN2)CC3)cc1	> 87.9 µM (inactive)	> 100 µM (inactive)	> 100 µM (inactive)	> 100 µM (inactive)	48.5 µM (inactive)	> 100	> 100 µM (inactive)	40 µM (inactive)	> 100 µM (inactive)	> 100 µM (inactive)	> 100 µM (inactive)	65.8 µM (inactive)	> 100 µM (inactive)	> 100 µM (inactive)	63.4 µM (inactive)	> 100 µM (inactive)	> 100 µM (inactive)	> 100 µM (inactive)	> 100 µM (inactive)	> 90.6 µM (inactive)
